The values below come from patent US20130116241A1, “NOVEL INHIBITOR COMPOUNDS OF PHOSPHODIESTERASE TYPE 10A” (AbbVie Inc., priority 2011, published 2013).

human PDE10A, sequence (Q9Y233 290-1055 limits assumed): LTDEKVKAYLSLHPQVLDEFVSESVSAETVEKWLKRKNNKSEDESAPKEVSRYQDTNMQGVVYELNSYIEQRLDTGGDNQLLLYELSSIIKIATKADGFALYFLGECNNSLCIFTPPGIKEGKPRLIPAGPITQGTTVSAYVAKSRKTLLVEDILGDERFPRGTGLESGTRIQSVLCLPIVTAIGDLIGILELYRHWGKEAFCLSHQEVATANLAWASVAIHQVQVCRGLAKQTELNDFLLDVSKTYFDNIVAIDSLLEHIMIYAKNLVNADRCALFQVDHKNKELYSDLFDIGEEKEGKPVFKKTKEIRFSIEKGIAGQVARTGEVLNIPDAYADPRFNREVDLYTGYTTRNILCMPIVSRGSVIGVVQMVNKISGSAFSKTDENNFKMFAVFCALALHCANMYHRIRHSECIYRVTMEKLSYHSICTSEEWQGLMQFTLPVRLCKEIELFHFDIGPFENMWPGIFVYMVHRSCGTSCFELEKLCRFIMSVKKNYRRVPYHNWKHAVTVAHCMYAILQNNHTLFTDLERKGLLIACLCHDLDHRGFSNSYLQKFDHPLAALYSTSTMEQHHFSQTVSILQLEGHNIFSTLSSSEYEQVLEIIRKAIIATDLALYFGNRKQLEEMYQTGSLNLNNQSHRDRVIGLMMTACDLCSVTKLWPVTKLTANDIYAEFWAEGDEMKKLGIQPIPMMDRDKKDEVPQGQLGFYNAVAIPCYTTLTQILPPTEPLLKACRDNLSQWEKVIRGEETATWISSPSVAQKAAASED

For the assay, the target named is human PDE10A (UniProt Q9Y233). Nature of the assay: Measurement of PDE activity (recombinant enzyme, HTRF cAMP kit). The note with it: Table 1, substrate 20 nM for PDE10, 60 minutes at 29 C, read-out: IC50. It is filed as biochemical. The procedure:
The recombinant PDE proteins are used in in vitro enzymatic reaction for measurement of PDE activity. These recombinant proteins, including PDE10A (human, rat and mouse PDE10) and isoforms of PDEs 1, 3, 4, and 5, were purchased from commercial vendor BPS Bioscience. The enzymatic activity of PDEs was determined by cAMP measurement kit from CisBio (IBA) using HTRF technology.
The PDE enzymatic reaction was carried out in assay buffer (20 mM Tris-HCl pH7.5, 10 mM MgCl2, 0.1% bovine serum albumin) containing enzyme and substrate. The PDE enzymes concentration ranged from 10 pM-250 pM, depending on each enzyme's specific activity. The substrate cyclic nucleotide (cAMP or cGMP) concentration used in the assay was 20 nM for PDE10, and 100 nM for other PDEs. The inhibitory effect of compound was determined by incubating various concentration of inhibitor in the enzymatic assay. Typically, compound was serial diluted in DMSO then further diluted in assay buffer. Next, the compound at varying concentration was mixed with PDE enzyme. The reaction was initiated by addition of cyclic nucleotide substrate, and incubated for 60 minutes at 29 C. The reaction was stopped by addition of lysis buffer from assay kit. The cAMP-d2 and anti-cAMP cryptate in the lysis buffer detected the level of cAMP left from the PDE hydrolysis reaction. The PDE activity is reversely correlated with the amount of cAMP left in the reaction and can be converted to the percent activity of an uninhibited control (100%). Thus, IC50 value of inhibitor can be obtained by plotting inhibitor concentration against PDE activity at that concentration.
(In general: In TR-FRET formats the signal depends on donor and acceptor labels being close together.)
For the compound “8-(2-Fluoro-5-methoxyphenyl)-2-[2-(quinolin-2-yl)ethyl]phthalazin-1(2H)-one [Example 164]”, the concentration for half-maximal inhibition (IC50) is 100 to 200 nM. The figure for `O=c1c2c(-c3ccncc3)cccc2ccn1C1CC1c1ccc2ccccc2n1` (racemic) [Example 222, anti (rac) 8-(Pyridin-4-yl)-2-(2-(quinolin-2-yl)cyclopropyl)isoquinolin-1(2H)-one] is below 100 nM. The figure for `O=c1c2c(-c3ccncc3)csc2ccn1C1CC1c1ccc2ccccc2n1` (racemic) [Example 224, anti (rac) 3-(Pyridin-4-yl)-5-(2-(quinolin-2-yl)cyclopropyl)thieno[3,2-c]pyridin-4(5H)-one] is below 100 nM; for `O=c1c2c(-c3ccncc3)cccc2cnn1C1CC1c1ccc2ccccc2n1` (racemic) [Example 226, anti (rac) 8-Pyridin-4-yl-2-(2-quinolin-2-yl-cyclopropyl)-2H-phthalazin-1-one 2,2,2,-trifluoroacetate] it is below 100 nM. The figure for `O=c1c2c(NC3COC3)cccc2ccn1[C@@H]1C[C@H]1c1ccc2ccccc2n1` (racemic) [Example 235, anti 8-(Oxetan-3-ylamino)-2-(2-(quinolin-2-yl)cyclopropyl)isoquinolin-1(2H)-one] is below 100 nM; for `O=c1c2c(-c3cncnc3)cccc2ccn1[C@@H]1C[C@H]1c1ccc2ccccc2n1` (racemic) [Example 240, anti 8-(pyrimidin-5-yl)-2-(2-(quinolin-2-yl)cyclopropyl)isoquinolin-1(2H)-one] it is below 100 nM. Regarding `O=c1c2c(-c3ccnnc3)coc2ccn1[C@@H]1C[C@H]1c1ccc2ccccc2n1` (relative stereo) [Example 232, anti 3-(Pyridazin-4-yl)-5-(2-(quinolin-2-yl)cyclopropyl)furo[3,2-c]pyridin-4(5H)-one], the IC50 was below 100 nM. `O=c1c2c(-c3ccncc3)coc2ccn1[C@@H]1C[C@H]1c1ccc2ccccc2n1` (relative stereo) [Example 233, anti 3-(pyridin-4-yl)-5-(2-(quinolin-2-yl)cyclopropyl)furo[3,2-c]pyridin-4(5H)-one]: the IC50 was below 100 nM.

As for `Cn1cc(-c2cccc3ccn([C@@H]4C[C@H]4c4ccc5ccccc5n4)c(=O)c23)cn1` (relative stereo) [Example 241, anti 8-(1-methyl-1H-pyrazol-4-yl)-2-(2-(quinolin-2-yl)cyclopropyl)isoquinolin-1(2H)-one], the half-maximal inhibitory concentration (IC50) is below 100 nM. The figure for `O=c1c2c(-c3ccncc3F)cccc2ccn1[C@@H]1C[C@H]1c1ccc2ccccc2n1` (relative stereo) [Example 242, anti 8-(3-fluoropyridin-4-yl)-2-(2-(quinolin-2-yl)cyclopropyl)isoquinolin-1(2H)-one] is below 100 nM; for `O=c1c2c(-c3ccnc(F)c3)cccc2ccn1[C@@H]1C[C@H]1c1ccc2ccccc2n1` (relative stereo) [Example 243, anti 8-(2-fluoropyridin-4-yl)-2-(2-(quinolin-2-yl)cyclopropyl)isoquinolin-1(2H)-one] it is below 100 nM; for `N#CC1CCN(c2cccc3ccn([C@@H]4C[C@H]4c4ccc5ccccc5n4)c(=O)c23)CC1` (relative stereo) [Example 247, anti 1-(1-oxo-2-(2-(quinolin-2-yl)cyclopropyl)-1,2-dihydroisoquinolin-8-yl)piperidine-4-carbonitrile] it is below 100 nM. Turning to `COC1CCN(c2cccc3ccn([C@@H]4C[C@H]4c4ccc5ccccc5n4)c(=O)c23)CC1` (relative stereo) [Example 252, anti 8-(4-methoxypiperidin-1-yl)-2-(2-(quinolin-2-yl)cyclopropyl)isoquinolin-1(2H)-one (2E)-but-2-enedioate], the half-maximal inhibitory concentration (IC50) was below 100 nM. The figure for `O=c1c2c(N3CCC(O)CC3)cccc2ccn1[C@@H]1C[C@H]1c1ccc2ccccc2n1` (relative stereo) [Example 253, anti 8-(4-hydroxypiperidin-1-yl)-2-(2-(quinolin-2-yl)cyclopropyl)isoquinolin-1(2H)-one (2E)-but-2-enedioate] is below 100 nM; for `O=c1c2c(-c3ccc(F)cc3)cccc2ccn1[C@@H]1C[C@H]1c1ccc2ccccc2n1` (relative stereo) [Example 267, anti 8-(4-fluorophenyl)-2-(2-(quinolin-2-yl)cyclopropyl)isoquinolin-1(2H)-one] it is below 100 nM. The figure for `O=c1c2c(N3CCOCC3)cccc2ccn1[C@@H]1C[C@H]1c1ccc2cc(F)ccc2n1` (relative stereo) [Example 271, anti 2-(2-(6-fluoroquinolin-2-yl)cyclopropyl)-8-morpholinoisoquinolin-1(2H)-one] is below 100 nM. The figure for `O=c1c2c(-c3cncnc3)cccc2ccn1[C@@H]1C[C@H]1c1ccc2cc(F)ccc2n1` (relative stereo) [Example 273, anti 2-(2-(6-fluoroquinolin-2-yl)cyclopropyl)-8-(pyrimidin-5-yl)isoquinolin-1(2H)-one] is below 100 nM; for `O=c1c2c(-c3ccncc3)ccnc2cnn1[C@@H]1C[C@H]1c1ccc2ccccc2n1` (relative stereo) [Example 277, anti 4-(pyridin-4-yl)-6-(2-(quinolin-2-yl)cyclopropyl)pyrido[2,3-d]pyridazin-5(6H)-one] it is below 100 nM.

As for `O=c1c2c(-c3ccncc3)cccc2cnn1[C@@H]1C[C@H]1c1ccc2cc(F)ccc2n1` (relative stereo) [compound 278], the half-inhibitory concentration (IC50) is below 100 nM. The figure for `O=c1c2c(-c3ccnc(F)c3)csc2ccn1[C@@H]1C[C@H]1c1ccc2ccccc2n1` (relative stereo) [compound 286] is below 100 nM. The figure for `O=c1c2c(-c3ccncc3)csc2ccn1C1CC1c1ccc2ccccc2n1` (single isomer, unassigned) [293a] is below 100 nM. The figure for `O=c1c2c(-c3ccncc3)csc2ccn1C1CC1c1ccc2ccccc2n1` (single isomer, unassigned) [293b] is below 100 nM; for `O=c1c2c(-c3ccnnc3)cccc2ccn1C1CC1c1ccc2ccccc2n1` (single isomer, unassigned) [Example 236, anti (−) 8-(pyridazin-4-yl)-2-(2-(quinolin-2-yl)cyclopropyl)isoquinolin-1(2H)-one] it is below 100 nM; for `O=c1c2c(-c3ccc(F)nc3)cccc2ccn1C1CC1c1ccc2ccccc2n1` (single isomer, unassigned) [Example 237, anti (−) 8-(6-fluoropyridin-3-yl)-2-(2-(quinolin-2-yl)cyclopropyl)isoquinolin-1(2H)-one] it is below 100 nM.

Take `O=c1c2c(-c3ccnc(F)c3)cccc2ccn1C1CC1c1ccc2ccccc2n1` (single isomer, unassigned) [Example 238, anti (−) 8-(2-fluoropyridin-4-yl)-2-(2-(quinolin-2-yl)cyclopropyl)isoquinolin-1(2H)-one]: the IC50 was below 100 nM. The figure for `O=c1c2c(-c3cncnc3)cccc2ccn1C1CC1c1ccc2ccccc2n1` (single isomer, unassigned) [Example 240a, anti (+) 8-(pyrimidin-5-yl)-2-(2-(quinolin-2-yl)cyclopropyl)isoquinolin-1(2H)-one] is below 100 nM; for `O=c1c2c(N3CCOCC3)cccc2ccn1C1CC1c1ccc2ccccc2n1` (single isomer, unassigned) [Example 246a, anti (+) 8-morpholino-2-(2-(quinolin-2-yl)cyclopropyl)isoquinolin-1(2H)-one] it is below 100 nM; for `O=c1c2c(N3CCOCC3)cccc2ccn1C1CC1c1ccc2ccccc2n1` (single isomer, unassigned) [Example 246b, anti (−) 8-morpholino-2-(2-(quinolin-2-yl)cyclopropyl)isoquinolin-1(2H)-one] it is below 100 nM. The figure for `O=c1c2c(N3CCC4(COC4)C3)cccc2ccn1C1CC1c1ccc2ccccc2n1` (single isomer, unassigned) [Example 258, anti (−) 2-(2-(quinolin-2-yl)cyclopropyl)-8-(2-oxa-6-azaspiro[3.4]octan-6-yl)isoquinolin-1(2H)-one] is below 100 nM; for `O=c1c2c(N3CC4COCC4C3)cccc2ccn1C1CC1c1ccc2ccccc2n1` (single isomer, unassigned) [Example 259, anti (−) 8-(dihydro-1H-furo[3,4-c]pyrrol-5(3H,6H,6aH)-yl)-2-(2-(quinolin-2-yl)cyclopropyl)isoquinolin-1(2H)-one] it is below 100 nM. The figure for `O=c1c2c(N3CCC(F)(F)CC3)cccc2ccn1C1CC1c1ccc2ccccc2n1` (single isomer, unassigned) [Example 260, anti (−) 8-(4,4-difluoropiperidin-1-yl)-2-(2-(quinolin-2-yl)cyclopropyl)isoquinolin-1(2H)-one] is below 100 nM; for `COc1ccc(-c2cccc3ccn(C4CC4c4ccc5ccccc5n4)c(=O)c23)cc1` (single isomer, unassigned) [Example 270, anti (−) 8-(4-methoxyphenyl)-2-(2-(quinolin-2-yl)cyclopropyl)isoquinolin-1(2H)-one] it is below 100 nM.

One may read the IC50 as the concentration at which inhibition is half-maximal.
